Data as given in patent US20100305068A1, “COMPOUNDS AND METHODS FOR MODULATING PROTEIN TRAFFICKING” (priority 2006, published 2010).
Where two headings read alike, the source gives them in different places.

System: pdr5 ypt1^ts cells
Experiment: microbe, parasite or virus in culture
Assay type: cell-based, yeast
Conditions: for minimal effective concentration / optical density, ypt1-ts, 0.39 / optical density, ypt1-ts, 0.78 / optical density, ypt1-ts, 1.56 / optical density, ypt1-ts, 3.13 / optical density, ypt1-ts, 6.25 / optical density, ypt1-ts, 12.5 / optical density, ypt1-ts, 25: Table 2; for minimal effective concentration: lowest concentration tested giving growth above the 0 μM background, read-out: ypt1-ts MRC (minimal rescue concentration); for optical density, ypt1-ts, 0.39: 0.39 μM compound; for optical density, ypt1-ts, 0.39 / optical density, ypt1-ts, 0.78 / optical density, ypt1-ts, 1.56 / optical density, ypt1-ts, 3.13 / optical density, ypt1-ts, 6.25 / optical density, ypt1-ts, 12.5 / optical density, ypt1-ts, 25: background (0 μM) 0.058; for optical density, ypt1-ts, 0.78: 0.78 μM compound; for optical density, ypt1-ts, 1.56: 1.56 μM compound; for optical density, ypt1-ts, 3.13: 3.13 μM compound; for optical density, ypt1-ts, 6.25: 6.25 μM compound; for optical density, ypt1-ts, 12.5: 12.5 μM compound; for optical density, ypt1-ts, 25: 25 μM compound
Summary of the method: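 Whole-cell yeast growth-rescue screen: pdr5 ypt1^ts cells (efflux pump inactivated), growth-arrested at 37° C., cultured with compounds at 37° C. Restoration of growth read by optical density.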

[1] = Table 3, 3.13 uM compound, 37° C., background (0 uM) 0.077
[2] = Table 3, 12.5 uM compound, 37° C., background (0 uM) 0.077
[3] = Table 3, 50 uM compound, 37° C., background (0 uM) 0.077
[4] = Saccharomyces cerevisiae, 37° C.

In the case of `COC(=O)C(O)[C@H]1C(C)(C)[C@@H](OC(C)=O)[C@@H]2CC3=C4CC(=O)O[C@@H](c5ccoc5)[C@]4(C)CCC3[C@]1(C)C2=O` (stereo partly shown) [SWIETENOLIDE- 3-ACETATE], the “optical density, 3.13 uM” value [1] is reported as 0.425, the “optical density, 12.5 uM” value [2] is reported as 0.629 and the “optical density, 50 uM” value [3] is reported as 0.619.
With `C=CCC1(C(C)CCC)C(=O)N=C([S-])NC1=O.[Na+]` (stereo not shown) [THIAMYLAL SODIUM, reference compound] the minimal effective concentration [4] was 12.5 µM, the “optical density, ypt1-ts, 0.39” value (37° C.) was 0.089 and the “optical density, ypt1-ts, 0.78” value (37° C.) was 0.071. For the same compound, the “optical density, ypt1-ts, 1.56” value (37° C.) was 0.089, the “optical density, ypt1-ts, 3.13” value (37° C.) was 0.101 and the “optical density, ypt1-ts, 6.25” value (37° C.) was 0.103. For the same compound, the “optical density, ypt1-ts, 12.5” value (37° C.) was 0.162 and the “optical density, ypt1-ts, 25” value (37° C.) was 0.209.
`CC1(C)C(=O)C=C[C@]2(C)C3CC[C@@]4(C)[C@H](c5ccoc5)C[C@H]5O[C@]54C3[C@H](O)CC12` (stereo partly shown) [TRI- CHILENONE] was tested, and the “optical density, 3.13 uM” value [1] was 0.119, the “optical density, 12.5 uM” value [2] was 0.283 and the “optical density, 50 uM” value [3] was 0.462.
`CC(CCC(=O)O)[C@H]1CCC2C3C(CC[C@@]21C)[C@@]1(C)CC[C@@H](O)C[C@H]1C[C@@H]3O` (stereo partly shown) [URSODIOL, reference compound] was tested, and the “optical density, 3.13 uM” value [1] was 0.202, the “optical density, 12.5 uM” value [2] was 0.41 and the “optical density, 50 uM” value [3] was 0.523.
In the case of `O=c1c2ccccc2oc2ccccc12` [XANTHONE], the minimal effective concentration [4] is reported as 6.25 µM, the “optical density, ypt1-ts, 0.39” value (37° C.) is reported as 0.096 and the “optical density, ypt1-ts, 0.78” value (37° C.) is reported as 0.072. For the same compound, the “optical density, ypt1-ts, 1.56” value (37° C.) was 0.093, the “optical density, ypt1-ts, 3.13” value (37° C.) was 0.109 and the “optical density, ypt1-ts, 6.25” value (37° C.) was 0.152. The “optical density, ypt1-ts, 12.5” value (37° C.) was 0.445 and the “optical density, ypt1-ts, 25” value (37° C.) was 0.598.
`Nc1nc2ncc(=O)[nH]c2c(=O)[nH]1` [XANTHOP- TERIN] was tested, and the “optical density, 3.13 uM” value [1] was 0.101, the “optical density, 12.5 uM” value [2] was 0.23 and the “optical density, 50 uM” value [3] was 0.073.
In the case of `C=C1C2CC[C@@]3(C)[C@H](c4ccoc4)OC(=O)C[C@]13O[C@H]1CC(=O)C(C)(C)C(CC(=O)OC)C21C` (stereo partly shown) [[…], METHYL ESTER], the minimal effective concentration [4] is reported as 3.13 µM, the “optical density, ypt1-ts, 0.39” value (37° C.) is reported as 0.119 and the “optical density, ypt1-ts, 0.78” value (37° C.) is reported as 0.087. The “optical density, ypt1-ts, 1.56” value (37° C.) was 0.107, the “optical density, ypt1-ts, 3.13” value (37° C.) was 0.21 and the “optical density, ypt1-ts, 6.25” value (37° C.) was 0.53. For the same compound, the “optical density, ypt1-ts, 12.5” value (37° C.) was 0.56 and the “optical density, ypt1-ts, 25” value (37° C.) was 0.577.
For AKLAVINE HYDROCHLORIDE, the “optical density, ypt1-ts, 0.39” value (37° C.) was 0.095, the “optical density, ypt1-ts, 0.78” value (37° C.) was 0.136 and the “optical density, ypt1-ts, 1.56” value (37° C.) was 0.078. The “optical density, ypt1-ts, 3.13” value (37° C.) was 0.088, the “optical density, ypt1-ts, 6.25” value (37° C.) was 0.101 and the “optical density, ypt1-ts, 12.5” value (37° C.) was 0.145. The “optical density, ypt1-ts, 25” value (37° C.) was 0.246 and the minimal effective concentration (37° C.) was 12.5 µM.
In the case of AVOCATIN A, the “optical density, 3.13 uM” value [1] is reported as 0.351, the “optical density, 12.5 uM” value [2] is reported as 0.06 and the “optical density, 50 uM” value [3] is reported as 0.036.
For AVOCATIN B, the “optical density, 3.13 uM” value [1] was 0.451, the “optical density, 12.5 uM” value [2] was 0.032 and the “optical density, 50 uM” value [3] was 0.032.
For CHLORO- PHYLLIDE Cu COMPLEX Na SALT, the “optical density, 3.13 uM” value [1] was 0.064, the “optical density, 12.5 uM” value [2] was 0.054 and the “optical density, 50 uM” value [3] was 0.305.
DACTINOMYCIN [reference compound] was tested, and the “optical density, ypt1-ts, 0.39” value (37° C.) was 0.093, the “optical density, ypt1-ts, 0.78” value (37° C.) was 0.071 and the “optical density, ypt1-ts, 1.56” value (37° C.) was 0.082. For the same compound, the “optical density, ypt1-ts, 3.13” value (37° C.) was 0.104, the “optical density, ypt1-ts, 6.25” value (37° C.) was 0.351 and the “optical density, ypt1-ts, 12.5” value (37° C.) was 0.663. The “optical density, ypt1-ts, 25” value (37° C.) was 0.669 and the minimal effective concentration (37° C.) was 6.25 µM.
FUSIDIC ACID [reference compound] was tested, and the “optical density, ypt1-ts, 0.39” value (37° C.) was 0.095, the “optical density, ypt1-ts, 0.78” value (37° C.) was 0.081 and the “optical density, ypt1-ts, 1.56” value (37° C.) was 0.084. For the same compound, the “optical density, ypt1-ts, 3.13” value (37° C.) was 0.107, the “optical density, ypt1-ts, 6.25” value (37° C.) was 0.137 and the “optical density, ypt1-ts, 12.5” value (37° C.) was 0.296. For the same compound, the “optical density, ypt1-ts, 25” value (37° C.) was 0.52 and the minimal effective concentration (37° C.) was 6.25 µM.
NIMESULIDE [reference compound] was tested, and the “optical density, 3.13 uM” value was 0.098, the “optical density, 12.5 uM” value was 0.147 and the “optical density, 50 uM” value was 0.539.
In the case of NIMODIPINE [reference compound], the “optical density, ypt1-ts, 0.39” value (37° C.) is reported as 0.097, the “optical density, ypt1-ts, 0.78” value (37° C.) is reported as 0.081 and the “optical density, ypt1-ts, 1.56” value (37° C.) is reported as 0.096. The “optical density, ypt1-ts, 3.13” value (37° C.) was 0.113, the “optical density, ypt1-ts, 12.5” value (37° C.) was 0.178 and the “optical density, ypt1-ts, 25” value (37° C.) was 0.27. It also gave a minimal effective concentration (37° C.) of 12.5 µM.
